Assay results: ChEMBL document CHEMBL1201862, “PubChem BioAssay data set” (2004)
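How tested: cells in 96-well plates exposed to compound for 48 hours at five concentrations. The concentration for 50% growth inhibition is given as GI50.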 The source made the active and inactive calls. Rule as the data show it: active = GI50 up to about 1.1 µM and inactive = higher.

How the values were obtained:
Experiment in all cases: DTP human tumour cell line panel, 48 h
786-0 = system: 786-0
CCRF-CEM = system: CCRF-CEM
EKVX = system: EKVX
HCC 2998 = system: HCC 2998
HCT-15 = system: HCT-15
IGROV-1 = system: IGROV-1
K562 = system: K562
MDA-MB-231 = system: MDA-MB-231
MOLT-4 = system: MOLT-4
NCI-H226 = system: NCI-H226
NCI-H23 = system: NCI-H23
NCI-H522 = system: NCI-H522
NCI/ADR-RES = system: NCI/ADR-RES
PC-3 = system: PC-3
RPMI-8226 = system: RPMI-8226
SK-MEL-28 = system: SK-MEL-28
SK-MEL-5 = system: SK-MEL-5
SNB-19 = system: SNB-19
U-251 = system: U-251
UACC-62 = system: UACC-62

Row | SMILES | GI50 (786-0) | GI50 (CCRF-CEM) | GI50 (EKVX) | GI50 (HCC 2998) | GI50 (HCT-15) | GI50 (IGROV-1) | GI50 (K562) | GI50 (MDA-MB-231) | GI50 (MOLT-4) | GI50 (NCI-H226) | GI50 (NCI-H23) | GI50 (NCI-H522) | GI50 (NCI/ADR-RES) | GI50 (PC-3) | GI50 (RPMI-8226) | GI50 (SK-MEL-28) | GI50 (SK-MEL-5) | GI50 (SNB-19) | GI50 (U-251) | GI50 (UACC-62)
1 | O=c1c2cc([N+](=O)[O-])ccc2n2n1CCCCC2 | > 100 µM (inactive) | > 100 µM (inactive) | > 100 µM (inactive) | > 100 µM (inactive) | > 100 µM | > 100 µM (inactive) | > 100 µM (inactive) | > 100 µM (inactive) | > 100 µM (inactive) | > 100 µM (inactive) | > 100 µM (inactive) | > 100 µM (inactive) | > 100 µM (inactive) | > 100 µM (inactive) | > 100 µM (inactive) | > 100 µM (inactive) | > 100 µM (inactive) | > 100 µM (inactive) | > 100 µM (inactive) | > 100 µM (inactive)
2 | N#Cc1c(-c2ccccc2)c(/C=N/c2ccc(F)cc2)c(=O)n2c1[nH]c1ccccc12 | 24.7 µM (inactive) | 15.6 µM (inactive) | 19.8 µM (inactive) | 21.2 µM (inactive) | 19.7 µM | 25.4 µM (inactive) | – | 51.6 µM (inactive) | – | 27.6 µM (inactive) | 37 µM (inactive) | 16 µM (inactive) | 21 µM (inactive) | 28.6 µM (inactive) | 3.06 µM (inactive) | 37.1 µM (inactive) | 25.6 µM (inactive) | 28.3 µM (inactive) | 46.7 µM (inactive) | –
3 | NC(=O)c1cccc([C@@H]2O[C@H](CO)[C@@H](O)[C@H]2O)c1 | 3.72 µM (inactive) | 1.33 µM (inactive) | 68.7 µM (inactive) | 29.3 µM (inactive) | 3.37 µM | 37.8 µM (inactive) | 3.17 µM (inactive) | 77.1 µM (inactive) | 1.23 µM (inactive) | 12.5 µM (inactive) | 10.3 µM (inactive) | 4.14 µM (inactive) | 6.41 µM (inactive) | 30.9 µM (inactive) | 4.42 µM (inactive) | 6.98 µM (inactive) | 32.2 µM (inactive) | 14 µM (inactive) | 11.5 µM (inactive) | 29.1 µM (inactive)
4 | Cc1cc(C)c2c(O)cc(-c3ccc(Cl)cc3)nc2n1 | > 46.5 µM (inactive) | 69.3 µM (inactive) | > 56.2 µM (inactive) | 27.6 µM (inactive) | 21.9 µM | 27.4 µM (inactive) | 9.79 µM (inactive) | > 27.9 µM (inactive) | 22.5 µM (inactive) | > 100 µM (inactive) | 75 µM (inactive) | 46.8 µM (inactive) | > 31.8 µM (inactive) | 14.9 µM (inactive) | 30.3 µM (inactive) | 28.3 µM (inactive) | 17.1 µM (inactive) | 94 µM (inactive) | 36.8 µM (inactive) | 60.4 µM (inactive)
5 | CC[C@@]1(OP(=O)(O)O)C(=O)OCc2c1cc1n(c2=O)Cc2cc3ccccc3nc2-1 | 0.0607 µM (active) | 0.00927 µM (active) | 1.12 µM (inactive) | 0.771 µM (active) | 0.748 µM | 0.311 µM (active) | 0.438 µM (active) | 3.37 µM (inactive) | 0.014 µM (active) | 0.179 µM (active) | 0.0608 µM (active) | 0.286 µM (active) | 0.0718 µM (active) | 0.32 µM (active) | 0.0718 µM (active) | 1.22 µM (inactive) | 0.153 µM (active) | 0.0798 µM (active) | 0.0603 µM (active) | 0.0381 µM (active)
6 | CCOC1OC(C)(C=C(C#N)C#N)CCC1C (stereo unspecified) | 25.9 µM (inactive) | 30.3 µM (inactive) | 33.3 µM (inactive) | 32.1 µM (inactive) | 25.5 µM | 10.5 µM (inactive) | 16.8 µM (inactive) | 88.1 µM (inactive) | 33.3 µM (inactive) | 23 µM (inactive) | 29.7 µM (inactive) | 15.4 µM (inactive) | 35.2 µM (inactive) | 49 µM (inactive) | 21 µM (inactive) | 47.2 µM (inactive) | 53.8 µM (inactive) | > 57.3 µM (inactive) | 52.7 µM (inactive) | 38 µM (inactive)
7 | COC(=O)NNC(=O)OC.COC(=O)Nc1ccccc1NC(=O)OC.COC(=O)Oc1nn(C(=O)OC)c(=O)c2ccccc12 | > 100 µM (inactive) | > 100 µM (inactive) | > 100 µM (inactive) | > 100 µM (inactive) | > 100 µM | > 100 µM (inactive) | > 100 µM (inactive) | > 100 µM (inactive) | > 100 µM (inactive) | > 100 µM (inactive) | > 100 µM (inactive) | > 100 µM (inactive) | > 100 µM (inactive) | > 100 µM (inactive) | > 100 µM (inactive) | > 100 µM (inactive) | > 100 µM (inactive) | > 100 µM (inactive) | > 100 µM (inactive) | > 100 µM (inactive)
8 | CCCC1C(CC)C(NC)C(C#N)(C#N)C1(C#N)C#N (stereo unspecified) | 15.4 µM (inactive) | 13.1 µM (inactive) | 25.2 µM (inactive) | 18 µM (inactive) | 13.2 µM | 15.7 µM (inactive) | 23.7 µM (inactive) | 15.2 µM (inactive) | 24.1 µM (inactive) | 2.88 µM (inactive) | 21.4 µM (inactive) | 13.9 µM (inactive) | 17.9 µM (inactive) | 18.1 µM (inactive) | 17.1 µM (inactive) | 30.2 µM (inactive) | 12.1 µM (inactive) | 22.5 µM (inactive) | 28.1 µM (inactive) | 17.5 µM (inactive)
9 | COC12c3ccccc3-c3ccccc3C1[C@@H](C(=O)O)[C@H]2C(=O)O (stereo partly specified) | > 10 µM (inactive) | > 10 µM (inactive) | > 10 µM (inactive) | > 10 µM (inactive) | > 10 µM | > 10 µM (inactive) | > 10 µM (inactive) | > 10 µM (inactive) | > 10 µM (inactive) | > 10 µM (inactive) | > 10 µM (inactive) | > 10 µM (inactive) | > 10 µM (inactive) | > 10 µM (inactive) | > 10 µM (inactive) | > 10 µM (inactive) | > 10 µM (inactive) | > 10 µM (inactive) | > 10 µM (inactive) | –
10 | CCCCC(/C=C\COC1CCCCO1)=C/C(=O)OCC (stereo unspecified) | 65.2 µM (inactive) | 33.8 µM (inactive) | 37 µM (inactive) | > 100 µM (inactive) | > 100 µM | 61.2 µM (inactive) | 45.2 µM (inactive) | > 100 µM (inactive) | 25.1 µM (inactive) | > 100 µM (inactive) | > 100 µM (inactive) | 30.5 µM (inactive) | > 100 µM (inactive) | 44.9 µM (inactive) | 25.9 µM (inactive) | > 100 µM (inactive) | 92.5 µM (inactive) | 98.2 µM (inactive) | 44.8 µM (inactive) | 55.7 µM (inactive)
11 | COc1cc(O)c(C(=O)/C=C/c2ccccc2)c(OC)c1 [FLAVOKAWAIN B] | 4.62 µM (inactive) | 2.27 µM (inactive) | 10.4 µM (inactive) | 2.97 µM (inactive) | 4.51 µM | 4.53 µM (inactive) | – | 7.64 µM (inactive) | 5.37 µM (inactive) | 4.15 µM (inactive) | 5.97 µM (inactive) | 2.42 µM (inactive) | 3.8 µM (inactive) | 6.1 µM (inactive) | 3.85 µM (inactive) | 3.34 µM (inactive) | 9.27 µM (inactive) | 3.47 µM (inactive) | 4.6 µM (inactive) | 4.14 µM (inactive)
12 | OCCCCCCCCCCCOc1ccc(C2OCC3(CC=CCC3)CO2)cc1 (stereo unspecified) | 13.8 µM (inactive) | 11 µM (inactive) | 10.6 µM (inactive) | 17.9 µM (inactive) | 15.2 µM | 16.1 µM (inactive) | – | 16.9 µM (inactive) | 34.2 µM (inactive) | 16.6 µM (inactive) | 16.4 µM (inactive) | 5.08 µM (inactive) | 14.7 µM (inactive) | 4.07 µM (inactive) | > 100 µM (inactive) | 16.9 µM (inactive) | 16.4 µM (inactive) | 19.9 µM (inactive) | 13.9 µM (inactive) | 17.1 µM (inactive)
13 | O=C(O)c1ccc(C=C2Sc3ccccc3S2)cc1 | 98.2 µM (inactive) | 55.5 µM (inactive) | 45 µM (inactive) | 8.07 µM (inactive) | 37.2 µM | 82.8 µM (inactive) | 70.5 µM (inactive) | > 100 µM (inactive) | 42.4 µM (inactive) | > 100 µM (inactive) | > 100 µM (inactive) | 26.1 µM (inactive) | 59.3 µM (inactive) | 50.7 µM (inactive) | 63.7 µM (inactive) | – | 51.6 µM (inactive) | 73.8 µM (inactive) | 48.2 µM (inactive) | 26.2 µM (inactive)
14 | COC(=O)[C@H](Cc1ccccc1)NC(=O)N(CCN(CCC#N)C(=O)N[C@H](C(=O)OC)C(C)C)c1ccccc1 | > 100 µM (inactive) | 33.7 µM (inactive) | > 100 µM (inactive) | > 100 µM (inactive) | > 100 µM | 57.5 µM (inactive) | – | > 100 µM (inactive) | 24.3 µM (inactive) | > 100 µM (inactive) | > 100 µM (inactive) | 30.3 µM (inactive) | > 100 µM (inactive) | > 100 µM (inactive) | 33.2 µM (inactive) | > 100 µM (inactive) | 52.6 µM (inactive) | > 100 µM (inactive) | > 100 µM (inactive) | 48.5 µM (inactive)
15 | CCCCCc1cc2cc3c(c(O)c2c(=O)[nH]1)C1(CCC3)C(=O)c2c(O)ccc(O)c2C1=O | > 100 µM (inactive) | > 100 µM (inactive) | > 100 µM (inactive) | > 100 µM (inactive) | > 100 µM | > 100 µM (inactive) | > 100 µM (inactive) | > 100 µM (inactive) | > 100 µM (inactive) | > 100 µM (inactive) | > 100 µM (inactive) | > 100 µM (inactive) | 99.5 µM (inactive) | > 100 µM (inactive) | > 100 µM (inactive) | > 100 µM (inactive) | > 100 µM (inactive) | > 100 µM (inactive) | > 100 µM (inactive) | –
